How the values were obtained:
[1] = molecular target: 5'-AMP-activated protein kinase catalytic subunit alpha-2 (Homo sapiens) (UniProt P54646); test: Inhibition of recombinant full length human AMPKalpha2 assessed as residual activity at 1 uM using AMARAASAAALAR as substrate incubated for 40 mins in presence of [gamma-33ATP] by scintillation counting based radiometry assay relative to control
[2] = molecular target: Tyrosine-protein kinase CSK (Homo sapiens) (UniProt P41240); test: Inhibition of recombinant human CSK assessed as residual activity at 1 uM poly(Glu, Tyr) 4:1 as substrate incubated 40 mins in presence of [gamma-33ATP] by scintillation counting based radiometry assay relative to control
[3] = molecular target: T1, cGMP-dependent protein kinase 1 (Homo sapiens) (UniProt Q13976); test: Inhibition of recombinant full-length human PKG1beta assessed as residual activity at 1 uM using RRRLSFAEPG as substrate measured after 40 mins in presence of [gamma33P]ATP by scintillation counting method relative to control
T1 sequence (whole entry): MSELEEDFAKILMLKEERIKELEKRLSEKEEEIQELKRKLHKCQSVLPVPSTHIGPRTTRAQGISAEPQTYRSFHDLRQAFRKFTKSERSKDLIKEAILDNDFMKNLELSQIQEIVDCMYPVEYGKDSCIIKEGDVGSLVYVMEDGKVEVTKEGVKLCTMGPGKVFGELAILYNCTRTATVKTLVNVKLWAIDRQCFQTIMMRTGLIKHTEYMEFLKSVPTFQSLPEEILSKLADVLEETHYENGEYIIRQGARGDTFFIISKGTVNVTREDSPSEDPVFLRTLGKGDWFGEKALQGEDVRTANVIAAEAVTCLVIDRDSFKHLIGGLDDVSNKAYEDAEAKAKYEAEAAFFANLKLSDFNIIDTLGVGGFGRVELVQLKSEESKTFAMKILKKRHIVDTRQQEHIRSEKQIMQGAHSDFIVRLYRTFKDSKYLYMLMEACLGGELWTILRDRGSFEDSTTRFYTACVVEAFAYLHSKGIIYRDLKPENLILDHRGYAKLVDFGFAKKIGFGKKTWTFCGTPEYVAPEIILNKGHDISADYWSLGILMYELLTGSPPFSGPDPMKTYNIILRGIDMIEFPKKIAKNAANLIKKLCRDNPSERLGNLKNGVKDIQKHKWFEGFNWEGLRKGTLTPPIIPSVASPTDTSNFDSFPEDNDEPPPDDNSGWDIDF

[4] = molecular target: Protein kinase C zeta type (Homo sapiens) (UniProt Q05513); test: Inhibition of recombinant human PKCzeta (2 to end residues) assessed as residual activity at 1 uM using ERMRPRKRQGSVRRRV as substrate measured after 40 mins in presence of [gamma33P]ATP by scintillation counting method relative to control
Sequence of Protein kinase C zeta type (Homo sapiens) (Q05513 whole entry): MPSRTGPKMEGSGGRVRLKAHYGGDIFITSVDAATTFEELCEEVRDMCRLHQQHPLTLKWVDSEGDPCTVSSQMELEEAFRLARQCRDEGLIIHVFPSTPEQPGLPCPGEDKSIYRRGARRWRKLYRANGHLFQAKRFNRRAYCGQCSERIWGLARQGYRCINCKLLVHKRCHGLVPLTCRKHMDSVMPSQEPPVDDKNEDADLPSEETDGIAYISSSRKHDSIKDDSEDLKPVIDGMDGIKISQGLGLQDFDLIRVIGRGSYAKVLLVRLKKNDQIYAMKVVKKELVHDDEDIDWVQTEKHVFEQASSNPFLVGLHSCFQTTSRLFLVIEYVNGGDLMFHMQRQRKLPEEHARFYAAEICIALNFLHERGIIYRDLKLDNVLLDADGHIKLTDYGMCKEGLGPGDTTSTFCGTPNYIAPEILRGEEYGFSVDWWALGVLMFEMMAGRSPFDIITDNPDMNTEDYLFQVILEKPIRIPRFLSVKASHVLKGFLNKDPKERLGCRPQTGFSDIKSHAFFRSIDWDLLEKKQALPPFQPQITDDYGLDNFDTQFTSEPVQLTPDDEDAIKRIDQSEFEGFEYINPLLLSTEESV

[5] = molecular target: Muscle, skeletal receptor tyrosine-protein kinase (Homo sapiens) (UniProt O15146); test: Inhibition of recombinant human MUSK (530 to end residues) assessed as residual activity at 1 uM using myelin basic protein as substrate measured after 40 mins in presence of [gamma33P]ATP by scintillation counting method relative to control
Sequence of Muscle, skeletal receptor tyrosine-protein kinase (Homo sapiens) (O15146 whole entry): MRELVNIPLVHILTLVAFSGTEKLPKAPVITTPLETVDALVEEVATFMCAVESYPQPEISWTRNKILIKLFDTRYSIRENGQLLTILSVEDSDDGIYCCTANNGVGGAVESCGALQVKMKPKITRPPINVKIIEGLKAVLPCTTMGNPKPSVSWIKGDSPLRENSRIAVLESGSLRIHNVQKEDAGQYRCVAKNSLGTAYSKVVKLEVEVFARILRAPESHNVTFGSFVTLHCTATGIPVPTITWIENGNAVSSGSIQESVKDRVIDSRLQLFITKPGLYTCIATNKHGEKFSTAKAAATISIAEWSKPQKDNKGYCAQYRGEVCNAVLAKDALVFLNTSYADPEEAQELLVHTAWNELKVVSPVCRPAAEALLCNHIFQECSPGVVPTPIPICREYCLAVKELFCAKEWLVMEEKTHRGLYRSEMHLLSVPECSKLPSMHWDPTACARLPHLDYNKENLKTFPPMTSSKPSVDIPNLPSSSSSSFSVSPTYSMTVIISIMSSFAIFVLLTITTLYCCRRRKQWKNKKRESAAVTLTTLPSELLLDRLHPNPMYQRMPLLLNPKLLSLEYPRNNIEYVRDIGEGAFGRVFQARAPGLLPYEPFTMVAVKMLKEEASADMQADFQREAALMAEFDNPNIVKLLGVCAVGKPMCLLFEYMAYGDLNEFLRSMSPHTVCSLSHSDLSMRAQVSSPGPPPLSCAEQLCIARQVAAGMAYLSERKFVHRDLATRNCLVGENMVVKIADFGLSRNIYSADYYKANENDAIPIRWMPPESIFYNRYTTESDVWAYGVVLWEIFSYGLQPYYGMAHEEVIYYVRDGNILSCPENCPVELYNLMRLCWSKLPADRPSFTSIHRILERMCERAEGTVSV

[6] = molecular target: Mitogen-activated protein kinase 13 (Homo sapiens) (UniProt O15264); test: Inhibition of recombinant human full length SAPK4 assessed as residual activity at 1 uM using myelin basic protein as substrate measured after 40 mins in presence of [gamma33P]ATP by scintillation counting method relative to control
Sequence of Mitogen-activated protein kinase 13 (Homo sapiens) (O15264 whole entry): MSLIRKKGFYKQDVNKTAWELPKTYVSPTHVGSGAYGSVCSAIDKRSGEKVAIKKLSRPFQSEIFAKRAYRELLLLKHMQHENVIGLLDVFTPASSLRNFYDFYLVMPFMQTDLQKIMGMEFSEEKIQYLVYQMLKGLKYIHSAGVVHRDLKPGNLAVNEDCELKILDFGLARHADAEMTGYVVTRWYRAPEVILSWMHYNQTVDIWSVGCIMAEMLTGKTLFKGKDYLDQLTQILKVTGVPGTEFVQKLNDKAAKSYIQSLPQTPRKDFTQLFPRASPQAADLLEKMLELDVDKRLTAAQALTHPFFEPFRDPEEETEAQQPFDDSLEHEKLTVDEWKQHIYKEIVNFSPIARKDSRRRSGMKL

[7] = molecular target: Serine/threonine-protein kinase N2 (Homo sapiens) (UniProt Q16513); test: Inhibition of recombinant human PRK2 (501 to end residues) assessed as residual activity at 1 uM using AKRRRLSSLRA as substrate measured after 40 mins in presence of [gamma33P]ATP by scintillation counting method relative to control
[8] = molecular target: Homeodomain-interacting protein kinase 4 (Homo sapiens) (UniProt Q8NE63); test: Inhibition of human HIPK4 assessed as residual activity at 1 uM using RRRFRPASPLRGPPK as substrate after 40 mins by [gamma-33ATP] radiometric assay relative to control
[9] = system: Macrophage colony-stimulating factor 1 receptor (Homo sapiens), P07333 [Y969C]; test: Inhibition of recombinant human FMS Y969C mutant (538 to end residues) assessed as residual activity at 1 uM using EEEEYEEEEEEYYIIEEEEEEYEEEEEEYYEEEEEEKKKK as substrate at 40 mins in presence of [gamma-33ATP] by scintillation counting based radiometry assay relative to control
[10] = molecular target: Serine/threonine-protein kinase 35 (Homo sapiens) (UniProt Q8TDR2); test: Inhibition of recombinant full length human CLIK1 assessed as residual activity at 1 uM using RSRSRSRSRSRS as substrate incubated 40 mins in presence of [gamma-33ATP] by scintillation counting based radiometry assay relative to control
Sequence of Serine/threonine-protein kinase 35 (Homo sapiens) (Q8TDR2 whole entry): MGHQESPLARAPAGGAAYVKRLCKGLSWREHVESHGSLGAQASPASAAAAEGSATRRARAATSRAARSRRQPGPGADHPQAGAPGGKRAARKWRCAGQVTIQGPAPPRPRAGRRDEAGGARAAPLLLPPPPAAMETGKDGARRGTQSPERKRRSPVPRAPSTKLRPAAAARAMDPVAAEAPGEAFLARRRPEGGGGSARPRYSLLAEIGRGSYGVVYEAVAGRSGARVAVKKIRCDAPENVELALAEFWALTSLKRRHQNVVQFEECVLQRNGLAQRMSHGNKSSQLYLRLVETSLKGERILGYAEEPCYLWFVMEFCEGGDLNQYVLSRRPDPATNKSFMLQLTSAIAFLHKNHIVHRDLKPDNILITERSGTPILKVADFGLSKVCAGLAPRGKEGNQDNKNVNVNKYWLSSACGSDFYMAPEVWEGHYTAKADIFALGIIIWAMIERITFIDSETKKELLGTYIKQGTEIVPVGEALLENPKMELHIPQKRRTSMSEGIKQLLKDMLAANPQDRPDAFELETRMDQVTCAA

[11] = system: Tyrosine-protein kinase ABL1 (Homo sapiens), P00519 [Q252H]; test: Inhibition of human ABL1 Q252H mutant (27 to end residues) assessed as residual activity at 1 uM using EAIYAAPFAKKK as substrate incubated for 40 mins in presence of [gamma-33ATP] by scintillation counting based radiometry assay relative to control
[12] = molecular target: Ephrin type-A receptor 8 (Homo sapiens) (UniProt P29322); test: Inhibition of recombinant human EphA8 (615 to 911 residues) assessed as residual activity at 1 uM using KTFCGTPEYLAPEVRREPRILSEEEQEMFRDFDYIADWC as substrate at 40 mins in presence of [gamma-33ATP] by scintillation counting based radiometry assay relative to control
Sequence of Ephrin type-A receptor 8 (Homo sapiens) (P29322 whole entry, the tested form may be a part): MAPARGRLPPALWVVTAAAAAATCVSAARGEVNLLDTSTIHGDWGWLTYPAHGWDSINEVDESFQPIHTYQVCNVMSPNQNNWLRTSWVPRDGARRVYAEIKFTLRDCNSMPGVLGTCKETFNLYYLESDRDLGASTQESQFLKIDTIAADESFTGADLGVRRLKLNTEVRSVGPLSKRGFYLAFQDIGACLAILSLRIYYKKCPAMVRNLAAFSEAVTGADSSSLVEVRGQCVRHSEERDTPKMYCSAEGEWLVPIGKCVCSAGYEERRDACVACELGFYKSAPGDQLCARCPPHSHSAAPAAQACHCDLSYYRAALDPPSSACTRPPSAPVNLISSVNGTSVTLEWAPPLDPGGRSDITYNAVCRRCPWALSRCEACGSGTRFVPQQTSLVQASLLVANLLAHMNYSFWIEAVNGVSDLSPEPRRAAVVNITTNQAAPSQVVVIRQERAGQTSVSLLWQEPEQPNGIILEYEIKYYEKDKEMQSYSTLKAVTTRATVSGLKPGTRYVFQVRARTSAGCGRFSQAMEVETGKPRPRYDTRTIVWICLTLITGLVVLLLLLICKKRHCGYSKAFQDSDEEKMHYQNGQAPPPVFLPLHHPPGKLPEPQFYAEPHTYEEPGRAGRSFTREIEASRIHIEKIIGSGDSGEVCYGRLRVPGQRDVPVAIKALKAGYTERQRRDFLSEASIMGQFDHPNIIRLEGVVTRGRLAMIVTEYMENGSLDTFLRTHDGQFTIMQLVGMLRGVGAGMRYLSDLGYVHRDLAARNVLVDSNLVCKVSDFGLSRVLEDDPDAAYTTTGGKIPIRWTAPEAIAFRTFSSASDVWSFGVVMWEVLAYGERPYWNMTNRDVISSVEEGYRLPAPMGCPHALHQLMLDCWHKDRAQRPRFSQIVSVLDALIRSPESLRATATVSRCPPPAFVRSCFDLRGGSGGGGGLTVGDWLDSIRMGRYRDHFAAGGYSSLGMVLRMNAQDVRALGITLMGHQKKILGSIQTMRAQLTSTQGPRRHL

[13] = system: Serine/threonine-protein kinase Chk2 (Homo sapiens), O96017 [I157T]; test: Inhibition of recombinant human CHK2 I157T mutant (5 to end residues) assessed as residual activity at 1 uM using KKKVSRSGLYRSPSMPENLNRPR as substrate incubated for 40 mins in presence of [gamma-33ATP] by scintillation counting based radiometry assay relative to control
Sequence of Serine/threonine-protein kinase Chk2 (Homo sapiens), O96017 [I157T] (O96017 whole entry I157T): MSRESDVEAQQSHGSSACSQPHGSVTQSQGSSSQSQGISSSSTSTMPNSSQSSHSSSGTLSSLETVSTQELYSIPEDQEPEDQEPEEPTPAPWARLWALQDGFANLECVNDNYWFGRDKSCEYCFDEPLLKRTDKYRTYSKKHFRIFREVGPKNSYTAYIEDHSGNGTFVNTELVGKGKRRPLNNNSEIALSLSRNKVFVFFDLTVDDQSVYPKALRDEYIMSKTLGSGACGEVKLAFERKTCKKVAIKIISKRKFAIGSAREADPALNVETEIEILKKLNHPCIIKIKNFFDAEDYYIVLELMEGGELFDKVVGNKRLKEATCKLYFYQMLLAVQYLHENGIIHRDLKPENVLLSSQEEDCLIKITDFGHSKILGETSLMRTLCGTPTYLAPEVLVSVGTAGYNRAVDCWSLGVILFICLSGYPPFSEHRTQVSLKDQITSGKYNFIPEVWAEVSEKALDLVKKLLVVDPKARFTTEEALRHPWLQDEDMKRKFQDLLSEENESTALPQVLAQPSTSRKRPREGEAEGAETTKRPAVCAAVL

[14] = molecular target: Tyrosine-protein kinase Fgr (Homo sapiens) (UniProt P09769); test: Inhibition of recombinant human FGR (2 to end residues) assessed as residual activity at 1 uM using poly(Glu, Tyr) 4:1 as substrate at 40 mins in presence of [gamma-33ATP] by scintillation counting based radiometry assay relative to control
[15] = molecular target: Cyclin-dependent kinase-like 3 (Homo sapiens) (UniProt Q8IVW4); test: Inhibition of recombinant full length human CDKL3 assessed as residual activity at 1 uM using RRRFRPASPLRGPPK as substrate incubated for 120 mins in presence of [gamma-33ATP] by scintillation counting based radiometry assay relative to control
Sequence of Cyclin-dependent kinase-like 3 (Homo sapiens) (Q8IVW4 whole entry, looked up): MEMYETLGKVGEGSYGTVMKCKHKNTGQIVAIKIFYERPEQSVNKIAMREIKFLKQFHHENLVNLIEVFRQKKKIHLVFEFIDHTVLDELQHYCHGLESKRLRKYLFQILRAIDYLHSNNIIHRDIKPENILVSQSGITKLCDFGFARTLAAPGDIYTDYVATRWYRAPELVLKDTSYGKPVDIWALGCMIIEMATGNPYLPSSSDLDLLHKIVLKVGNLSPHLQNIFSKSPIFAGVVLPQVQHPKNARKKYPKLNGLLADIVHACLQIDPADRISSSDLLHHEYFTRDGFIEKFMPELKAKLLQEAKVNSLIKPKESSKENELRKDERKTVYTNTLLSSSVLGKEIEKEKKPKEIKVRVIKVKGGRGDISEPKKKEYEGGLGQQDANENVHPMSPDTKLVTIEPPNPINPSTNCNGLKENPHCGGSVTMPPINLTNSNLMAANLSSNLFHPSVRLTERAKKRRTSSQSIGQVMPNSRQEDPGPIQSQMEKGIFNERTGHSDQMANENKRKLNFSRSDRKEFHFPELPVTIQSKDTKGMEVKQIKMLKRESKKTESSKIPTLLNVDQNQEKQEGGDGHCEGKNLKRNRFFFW

[16] = molecular target: Cyclin-dependent kinase 5/CDK5 activator 1 (Homo sapiens) (UniProt Q00535+Q15078); test: Inhibition of recombinant full length human CDK5/p35 assessed as residual activity at 1 uM using histone H1 as substrate incubated for 40 mins in presence of [gamma-33ATP] by scintillation counting based radiometry assay relative to control; assay type: protein-complex assay
Sequence of Cyclin-dependent kinase 5/CDK5 activator 1 (Homo sapiens) (Q00535 whole entry): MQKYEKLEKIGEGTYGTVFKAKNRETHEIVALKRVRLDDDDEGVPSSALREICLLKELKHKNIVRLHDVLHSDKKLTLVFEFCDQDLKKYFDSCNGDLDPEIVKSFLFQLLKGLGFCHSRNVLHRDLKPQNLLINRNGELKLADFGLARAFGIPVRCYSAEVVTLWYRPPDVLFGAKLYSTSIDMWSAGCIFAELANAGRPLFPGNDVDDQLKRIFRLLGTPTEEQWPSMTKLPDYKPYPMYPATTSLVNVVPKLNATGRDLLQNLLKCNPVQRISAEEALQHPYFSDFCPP
Sequence of Cyclin-dependent kinase 5/CDK5 activator 1 (Homo sapiens) (Q15078 99-307 partner limits assumed): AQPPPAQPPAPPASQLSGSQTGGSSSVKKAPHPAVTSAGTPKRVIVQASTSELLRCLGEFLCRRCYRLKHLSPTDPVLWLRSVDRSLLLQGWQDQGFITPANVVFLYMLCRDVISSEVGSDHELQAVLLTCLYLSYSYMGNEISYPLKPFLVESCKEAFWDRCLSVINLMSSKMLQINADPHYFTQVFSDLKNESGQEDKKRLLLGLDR

## N=C1NC(=O)/C(=C\c2ccc(-c3cccc([N+](=O)[O-])c3)o2)S1
[1]
  Activity: 44%
[2]
  Activity: 96%
[3]
  Activity: 82%
[4]
  Activity: 108%
[5]
  Activity: 114%
[6]
  Activity: 97%
[7]
  Activity: 95%
[8]
  Activity: 92%
[9]
  Activity: 106%
[10]
  Activity: 51%
[11]
  Activity: 80%
[12]
  Activity: 94%
[13]
  Activity: 85%
[14]
  Activity: 81%
[15]
  Activity: 54%
[16]
  Activity: 53%

## C=CCOC(=O)c1cc(-c2ccc(/C=C3/NC(=S)NC3=O)o2)ccc1Cl
[1]
  Activity: 33%
[2]
  Activity: 102%
[3]
  Activity: 100%
[4]
  Activity: 96%
[5]
  Activity: 96%
[6]
  Activity: 89%
[7]
  Activity: 107%
[8]
  Activity: 97%
[9]
  Activity: 95%
[10]
  Activity: 74%
[11]
  Activity: 110%
[12]
  Activity: 99%
[13]
  Activity: 91%
[14]
  Activity: 90%
[15]
  Activity: 67%
[16]
  Activity: 73%

Source: ChEMBL document CHEMBL4334438, “Discovery of novel glycogen synthase kinase-3α inhibitors: Structure-based virtual screening, preliminary SAR and biological evaluation for treatment of acute myeloid leukemia” (Eur J Med Chem, 2019)
